From US9440982B2 (Eolas Therapeutics, Inc., priority 2012, dated 2016) come the findings set out here.

One assay deals with T1, OX1 (Homo sapiens, UniProt O43613).
T1 construct: expressed in transfected cells; host or cells: CHO (CHO-OX1, kept under selection antibiotic)
T1 sequence (O43613 1-425): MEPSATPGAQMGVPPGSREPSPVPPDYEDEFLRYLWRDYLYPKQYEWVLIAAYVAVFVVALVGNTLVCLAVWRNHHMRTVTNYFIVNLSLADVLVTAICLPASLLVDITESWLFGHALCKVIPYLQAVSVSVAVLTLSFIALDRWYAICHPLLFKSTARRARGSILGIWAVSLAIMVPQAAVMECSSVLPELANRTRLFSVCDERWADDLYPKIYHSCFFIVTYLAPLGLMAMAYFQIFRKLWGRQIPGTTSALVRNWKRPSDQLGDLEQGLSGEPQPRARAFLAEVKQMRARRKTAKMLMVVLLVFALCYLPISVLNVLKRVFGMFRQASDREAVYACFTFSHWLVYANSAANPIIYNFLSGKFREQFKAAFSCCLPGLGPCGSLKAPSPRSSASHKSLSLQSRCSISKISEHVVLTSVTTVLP
Briefly: Orexin receptor cell-based functional assay, [Ca2+]i by FLIPR, CHO-OX1 cells. The conditions noted are these: CHO-OX1 cells, [Ca2+]i by FLIPR, antagonist dose-range 0.1 nM-10 μM, EC90 of OXA; read-out: OX1. In a few lines: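 Antagonist mode FLIPR calcium read in CHO-OX1 and CHO-OX2 lines. Test compounds, dosed 0.1 nM-10 μM, preincubated 30 min after 37° C dye loading with 2.5 mM probenecid (calcium4 for 30 min or calcium6 for 2 h).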
As for `Cc1ccc(-c2ccccn2)c(C(=O)N2CCC[C@@H](C)[C@H]2CNc2ccc(F)cn2)c1` [Example A58, ((2S,3R)-2-(((5-Fluoropyridin-2-yl)amino)methyl)-3-methylpiperidin-1-yl)(5-methyl-2-(pyridin-2-yl)phenyl)methanone], the IC50 turned out to be 230 nM.

Take `C[C@@H]1CCCN(C(=O)c2nccc3ccccc23)[C@@H]1CNc1ncc(Cl)cn1` [Example A225, ((2S,3R)-2-(((5-Chloropyrimidin-2-yl)amino)methyl)-3-methylpiperidin-1-yl)(isoquinolin-1-yl)methanone]: the IC50 turned out to be 340 nM.

For `Cc1ccc(C(=O)N2CCC[C@@H](C)[C@H]2CNc2ccc(C(F)(F)F)cn2)c(-n2nccn2)c1` [Example A273, ((2S,3R)-3-Methyl-2-(((5-(trifluoromethyl)pyridin-2-yl)amino)methyl)piperidin-1-yl)(4-methyl-2-(2H-1,2,3-triazol-2-yl)phenyl)methanone], the IC50 worked out at 6 nM.

With `Cc1nc(C(=O)N2CCCC3CN(c4ccc(C(F)(F)F)cn4)CC32)c(-c2ccc(F)cc2)s1` (stereo not drawn) [Example A77, (5-(4-Fluorophenyl)-2-methylthiazol-4-yl)(6-(5-(trifluoromethyl)pyridin-2-yl)octahydro-1H-pyrrolo[3,4-b]pyridin-1-yl)methanone], the IC50 is above 1000 nM.

In the case of `C[C@@H]1CCCN(C(=O)c2ccc(F)cc2-n2nccn2)[C@@H]1CNc1ncc(C(F)(F)F)cn1` [Example A251, (4-Fluoro-2-(2H-1,2,3-triazol-2-yl)phenyl)((2S,3R)-3-methyl-2-(((5-(trifluoromethyl)pyrimidin-2-yl)amino)methyl)piperidin-1-yl)methanone], the IC50 came to 58 nM.

With `COc1c(F)cccc1C(=O)N1CCC[C@@H](C)[C@H]1CNc1ccc(C(F)(F)F)cn1` [Example A75, (3-Fluoro-2-methoxyphenyl)((2S,3R)-3-methyl-2-(((5-(trifluoromethyl)pyridin-2-yl)amino)methyl)piperidin-1-yl)methanone], the IC50 stood at 1300 nM.

With `C[C@@H]1CCCN(C(=O)c2c(-n3nccn3)ccc(F)c2F)[C@@H]1CNc1ncc(C(F)(F)F)cn1` [Example A337, (2,3-Difluoro-6-(2H-1,2,3-triazol-2-yl)phenyl)((2S,3R)-3-methyl-2-(((5-(trifluoromethyl)pyrimidin-2-yl)amino)methyl)piperidin-1-yl)methanone], the IC50 was determined as 9 nM.

Staying with this assay, now noted: Table 2; CHO-OX1 cells, EC90 of OXA; read-out: IC50 Bioactivity OX1.
In the case of `Cc1nc(-c2ccccc2)c(C(=O)N2C(C)CCCC2CNC(=O)c2cccc3cccnc23)s1` (racemic) [Example 29, rac-N-((6-Methyl-1-(2-methyl-4-phenylthiazole-5-carbonyl)piperidin-2-yl)methyl)quinoline-8-carboxamide], the IC50 came out at 200 nM.

In the case of `Cc1nc(C(=O)N2CCC[C@@H](C)[C@H]2CNC(=O)c2cccc3occc23)c(-c2ccc(F)cc2)s1` (racemic) [Example 63, rac-cis-N-((1-(5-(4-Fluorophenyl)-2-methylthiazole-4-carbonyl)-3-methylpiperidin-2-yl)methyl)benzofuran-4-carboxamide], the IC50 came to 2 nM.

Take `Cc1ccc(-c2ncccn2)c(C(=O)N2CCC[C@@H](C)[C@H]2CNc2ccc(C(F)(F)F)cn2)c1` (racemic) [Example 112, rac-cis-(3-Methyl-2-(((5-(trifluoromethyl)pyridin-2-yl)amino)methyl)piperidin-1-yl)(5-methyl-2-(pyrimidin-2-yl)phenyl)methanone]: the IC50 came out at 17 nM.

As for `Cc1nc(-c2ccccc2)c(C(=O)N2CC[C@H](O)[C@H]2CNC(=O)c2cccc3cccnc23)s1` [Example 130, N-(((2R,3S)-3-Hydroxy-1-(2-methyl-4-phenylthiazole-5-carbonyl)pyrrolidin-2-yl)methyl)quinoline-8-carboxamide], the IC50 worked out at 6 nM.

As to `CC[C@@H]1CCCN(C(=O)c2nc(C)sc2-c2ccc(F)cc2)[C@@H]1CNc1ccc(C(F)(F)F)cn1` (racemic) [Example 76, rac-cis-(3-Ethyl-2-(((5-(trifluoromethyl)pyridin-2-yl)amino)methyl)piperidin-1-yl)(5-(4-fluorophenyl)-2-methylthiazol-4-yl)methanone], the IC50 was determined as 300 nM.

`Cc1nc(C(=O)N2C[C@H]3CCC[C@H]3C2COc2ccc(C(F)(F)F)cn2)c(-c2ccc(F)cc2)s1` (mixture of isomers) [Example 101, (5-(4-Fluorophenyl)-2-methylthiazol-4-yl)(1-(((5-(trifluoromethyl)pyridin-2-yl)oxy)methyl)hexahydrocyclopenta[c]pyrrol-2(1H)-yl)methanone]: the IC50 was determined as 3000 nM.

Turning to `Cc1ccc(-c2ccc(C)nc2)c(C(=O)N2CCC[C@@H](C)[C@H]2CNc2ccc(C(F)(F)F)cn2)c1` (racemic) [Example 105, rac-cis-(3-Methyl-2-(((5-(trifluoromethyl)pyridin-2-yl)amino)methyl)piperidin-1-yl)(5-methyl-2-(6-methylpyridin-3-yl)phenyl)methanone], the IC50 was 109 nM.

For the compound `Cc1ccc(-n2nccn2)c(C(=O)N2CCC[C@@H](C)[C@H]2CNc2ncc(C(F)(F)F)cn2)c1` (racemic) [Example 97, rac-cis-(3-Methyl-2-(((5-(trifluoromethyl)pyrimidin-2-yl)amino)methyl)piperidin-1-yl)(5-methyl-2-(2H-1,2,3-triazol-2-yl)phenyl)methanone], the IC50 was found to be 9 nM.

`CC1CCCC(CCOc2ccccc2)N1C(=O)c1ccccc1-c1ccccc1` (racemic) [Example 31, rac-Biphenyl-2-yl(2-methyl-6-(2-phenoxyethyl)piperidin-1-yl)methanone]: the IC50 stood at 10 nM.

For the compound `Cc1nc(C(=O)N2CCC[C@@H](C(F)(F)F)[C@H]2CNc2ccc(C(F)(F)F)cn2)c(-c2ccccc2)s1` (racemic) [Example 14, rac-cis-(2-Methyl-5-phenylthiazol-4-yl)(3-(trifluoromethyl)-2-(((5-(trifluoromethyl)pyridin-2-yl)amino)methyl)piperidin-1-yl)methanone], the IC50 came out at 9 nM.

Take `Cc1nc(-c2ccccc2)c(C(=O)N2CC(NCCO)CCC2CNC(=O)c2cccc3cccnc23)s1` (racemic) [Example 47, N-((5-(2-Hydroxyethylamino)-1-(2-methyl-4-phenylthiazole-5-carbonyl)piperidin-2-yl)methyl)quinoline-8-carboxamide]: the IC50 was below 10000 nM.

Turning to `COC1CCC(CNC(=O)c2cccc3cccnc23)N(C(=O)c2nc(C)sc2-c2cccc(F)c2)C1` (racemic) [Example 50, N-((1-(5-(3-Fluorophenyl)-2-methylthiazole-4-carbonyl)-5-methoxypiperidin-2-yl)methyl)quinoline-8-carboxamide], the IC50 was found to be 7 nM.

As for `Cc1ccc(-c2ccc(N3CCN(C)CC3)nc2)c(C(=O)N2CCC[C@@H](C)[C@H]2CNc2ccc(C(F)(F)F)cn2)c1` (racemic) [Example 110, rac-cis-(3-Methyl-2-(((5-(trifluoromethyl)pyridin-2-yl)amino)methyl)piperidin-1-yl)(5-methyl-2-(6-(4-methylpiperazin-1-yl)pyridin-3-yl)phenyl)methanone], the IC50 was above 1000 nM.

In the case of `Cc1cc2c(C(=O)NCC3CCCC(C)N3C(=O)c3nc(C)sc3-c3ccc(F)cc3)cccc2o1` (racemic) [Example 61, rac-N-((1-(5-(4-Fluorophenyl)-2-methylthiazole-4-carbonyl)-6-methylpiperidin-2-yl)methyl)-2-methylbenzofuran-4-carboxamide], the IC50 is 7 nM.

With `Cc1ccc(-c2cccnc2)c(C(=O)N2CCC[C@@H](C)[C@H]2CNc2ccc(C(F)(F)F)cn2)c1` (racemic) [Example 104, rac-cis-(3-Methyl-2-(((5-(trifluoromethyl)pyridin-2-yl)amino)methyl)piperidin-1-yl) (5-methyl-2-(pyridin-3-yl)phenyl)methanone], the IC50 came out at 1 nM.

Consider `Cc1ccc(-n2ccnc2)c(C(=O)N2CCC[C@@H](C)[C@H]2CNc2ccc(C(F)(F)F)cn2)c1` (racemic) [Example 116, rac-cis-(2-(1H-Imidazol-1-yl)-5-methylphenyl)(3-methyl-2-(((5-(trifluoromethyl)pyridin-2-yl)amino)methyl)piperidin-1-yl)methanone], for which the IC50 is below 100 nM.

Turning to `Cc1nc(-c2ccccc2)c(C(=O)N2CC(O)CCC2CNC(=O)c2cccc3cccnc23)s1` (racemic) [Example 33, N-((5-Hydroxy-1-(2-methyl-4-phenylthiazole-5-carbonyl)piperidin-2-yl)methyl)quinoline-8-carboxamide], the IC50 is 20 nM.

For the compound `C[C@@H]1CCCN(C(=O)c2ccccc2Oc2ccccc2)[C@@H]1CNc1ccc(C(F)(F)F)cn1` (racemic) [Example 118, rac-cis-(3-Methyl-2-(((5-(trifluoromethyl)pyridin-2-yl)amino)methyl)piperidin-1-yl) (2-phenoxyphenyl)methanone], the IC50 stood at 262 nM.

Consider `Cc1nc(-c2ccccc2)c(C(=O)N2CCC(=O)[C@H]2CNC(=O)c2cccc3cccnc23)s1` [Example 132, (R)—N-((1-(2-Methyl-4-phenylthiazole-5-carbonyl)-3-oxopyrrolidin-2-yl)methyl)quinoline-8-carboxamide], for which the IC50 came to 230 nM.

On to `Cc1nc(-c2ccccc2)c(C(=O)N2CC3CCCCC3C2CNC(=O)c2cccc3cccnc23)s1` (single isomer, unassigned) [Example 65], for which the IC50 was above 2000 nM.
